Source: publication PMC10672842, “Anti-Trypanosoma cruzi Activity, Mutagenicity, Hepatocytotoxicity and Nitroreductase Enzyme Evaluation of 3-Nitrotriazole, 2-Nitroimidazole and Triazole Derivatives” (Molecules, 2023)
Read-outs that look alike come from different tables or passages of the source.

Legend:
[1] = In vitro cytotoxicity of L929 cells (AlamarBlue); assay type: cell-based, mice; conditions: mouse, four days
Procedure: For this bioassay, 4000 mammalian cells in 200 µL of RPMI-1640 medium (pH 7.2–7.4) (Gibco BRL) plus 10% fetal bovine serum and 2 mM glutamine were added to each well of a 96-well microtiter plate, which was incubated for three days at 37 °C. […] After this period, 20 µL of AlamarBlue^TM was added to each well, and the plate was incubated for another 4–6 h. Then, the absorbance was measured at 570 nm. Controls with cells not treated and treated with benznidazole were performed in parallel, and triplicates were performed on the same plate. The results are expressed as the percent difference in the reduction between treated (CT) and untreated cells (UT) using the following equation:(1) 117.216Abs570 TC−80.586(Abs600 TC)/117.216Abs570 UT−80.586(Abs600 UT) × 100

in vitro [2] = assay type: cell-based; conditions: human
Procedure: (§1) The Lactate Desidrogenase (LDH) Cytotoxicity Detection Kit^PLUS and the Cell Proliferation Reagent WST-1 assays were performed according to the manufacturer’s protocols. The human hepatocellular carcinoma cell line HepG2 was cultured in T25/175 cm^2 flasks with Dulbecco’s modified Eagle’s medium (DMEM, Gibco BRL) supplemented with 10% fetal bovine serum, 3.7 g/L sodium bicarbonate and 100 µg/mL penicillin–streptomycin under standard conditions (37 ± 1 °C, 95% relative humidity and 5% CO2). Cells were split using trypsin-EDTA (0.05%) with phenol red solution (Gibco BRL) and seeded in a 96-well flat-bottomed plate at a density of 1 × 10^4 cells/well. After overnight incubation, the cells were washed with 1X PBS, and the medium was replaced with different compound dilutions (0–5000 µM) in fresh medium (100 µL) followed by 24 h of incubation. DMSO 1% was used as the negative control, and Triton X-100 4% was used as the positive control. For the LDH assay, after treatment, 50 µL of supernatant from each well was transferred to a 96-well flat-bottomed plate, and 50 µL of freshly prepared reaction mixture was added to each well. After 10 min of incubation in the dark at room temperature, 25 µL of stop solution was added to each well, and the absorbance was measured at 492 nm on a microplate reader (Polaris, Celer, MG, Brazil). For the WST-1 assay, after exposure, the supernatant was replaced by 100 µL of WST-1 2% in fresh medium and incubated for 3 h in the dark under standard conditions. The absorbance was measured at 440 nm. […] For cytotoxicity assays, significant differences between the groups were analyzed by one-way ANOVA and Tukey’s post hoc tests (p < 0.01).

S. typhimurium TA1535 = conditions: for Mutagenicity in the Ames test (verdict): TA1535, absence or presence of metabolic activation
in vitro [3] = assay type: cell-based; conditions: human; remark: listed apart in the source
Procedure: as §1

[4] = test system: T. cruzi nitroreductase enzyme (TcNTR); experiment: Kinetic assay with Trypanosoma cruzi nitroreductase enzyme (NADH oxidation); assay type: biochemical; conditions: for Kobs Deriv./Kobs BZN 25 µM: 25 µM derivative; for Kobs Deriv./Kobs BZN 25 µM / Kobs Deriv./Kobs BZN 50 µM: ratio of mean Kobs to BZN; for Kobs Deriv./Kobs BZN 50 µM: 50 µM derivative
Procedure: To determine a potential mechanism of action, nitroazole derivatives 5, 6, 8 and 9 were evaluated as substrates of the T. cruzi nitroreductase enzyme (TcNTR) and compared to BZN, the reference prodrug (Table 2). The enzymatic activity was measured by monitoring the oxidation of NADH, the first substrate of the enzyme, via spectrophotometric assays. […] At a concentration of 25 µM, derivatives 5 and 8 were metabolized at rates 2.3 and 2.6 times higher than that of BZN, respectively. At 50 µM, the compounds presented metabolism rates 1.6 and 3.0 times higher than that of BZN, respectively.
The protocols for expressing, purifying and conducting kinetic analysis with the recombinant TcNTR enzyme were adapted from the methods originally developed by Shane Wilkinson, with certain modifications.
For the kinetics assays, it was prepared a 200 μL solution which included 50 mM Tris-Base at pH 7.5, with a constant concentration of both NADH (50 μM) and the substances 5, 6, 8, 9 or BZN. Specifically, two distinct fixed concentrations (25 and 50 μM) of the substances 5, 6, 8, 9 or BZN were tested. These prepared mixtures were then incubated for 5 min at room temperature. Subsequently, the reaction was initiated by adding NTR to achieve a final concentration of 10 μg/mL. The reaction rates were monitored using a Hitachi U-2900 spectrophotometer, measuring the consumption of the primary substrate, NADH (λ = 340 nm; ε = 6.220 M^−1 cm^−1), over a 2-min interval. The resulting data curves were analyzed through linear regression using OriginPro 2016 software. To evaluate the reaction rate (Kobs) obtained from the 25 and 50 μM concentrations of each substrate, comparisons were made with the reference values for BZN. Measurement errors were calculated using the formula: Error = Z × σ/√n, where ‘Z’ denotes the critical value, ‘σ’ represents the standard deviation and ‘n’ is the number of test measurements, which were performed at least in triplicate.

Structure (SMILES) | CC50 at 4 days [1] | CC50 at 24 h (in vitro [2]) | CC50 at 48 h (in vitro [2]) | IF (induction factor) (S. typhimurium TA1535; TA1535, +S9, 0.5 µM) | revertant His+ colonies, mean ± SD (S. typhimurium TA1535; TA1535, +S9, 0.5 µM) | IF (induction factor) (S. typhimurium TA1535; TA1535, +S9, 5 µM) | revertant His+ colonies, mean ± SD (S. typhimurium TA1535; TA1535, +S9, 5 µM) | IF (induction factor) (S. typhimurium TA1535; TA1535, +S9, 50 µM) | revertant His+ colonies, mean ± SD (S. typhimurium TA1535; TA1535, +S9, 50 µM) | revertant His+ colonies, mean ± SD (S. typhimurium TA1535; TA1535, +S9, 500 µM) | Mutagenicity in the Ames test (verdict) (S. typhimurium TA1535) | IF (induction factor) (S. typhimurium TA1535; TA1535, −S9, 0.5 µM) | revertant His+ colonies, mean ± SD (S. typhimurium TA1535; TA1535, −S9, 0.5 µM) | IF (induction factor) (S. typhimurium TA1535; TA1535, −S9, 5 µM) | revertant His+ colonies, mean ± SD (S. typhimurium TA1535; TA1535, −S9, 5 µM) | IF (induction factor) (S. typhimurium TA1535; TA1535, −S9, 50 µM) | revertant His+ colonies, mean ± SD (S. typhimurium TA1535; TA1535, −S9, 50 µM) | revertant His+ colonies, mean ± SD (S. typhimurium TA1535; TA1535, −S9, 500 µM) | CC50 at 24 h (in vitro [3]) | CC50 at 48 h (in vitro [3]) | other results
O=C(Cn1ccnc1[N+](=O)[O-])NCc1ccccc1 [BZN, benznidazole, reference compound] | 2110 ± 270 µM | > 500 µM | > 500 µM | 1.3 | 13 ± 1 | 1.6 | 17 ± 3 | 2.1 | 22 ± 3 | 31 ± 2 | mutagenic | 1.5 | 11 ± 2 | 1.5 | 11 ± 5 | 1.5 | 11 ± 1 | 18 ± 4 | > 500 µM | > 500 µM | CC50 at 72 h (in vitro [2]): > 500 µM; IF (induction factor) (S. typhimurium TA1535; TA1535, +S9, 500 µM): 2.9; IF (induction factor) (S. typhimurium TA1535; TA1535, +S9, 5000 µM): 3.0; revertant His+ colonies, mean ± SD (S. typhimurium TA1535; TA1535, +S9, 5000 µM): 32 ± 4; IF (induction factor) (S. typhimurium TA1535; TA1535, −S9, 500 µM): 2.5; IF (induction factor) (S. typhimurium TA1535; TA1535, −S9, 5000 µM): 4.9; revertant His+ colonies, mean ± SD (S. typhimurium TA1535; TA1535, −S9, 5000 µM): 36 ± 5; CC50 at 72 h (in vitro [3]): > 500 µM; Kobs ([4]; 25 µM Derivative + 50 µM NADH): 0.36 µmol of oxidized NADH/min/mg TcNTR; Kobs ([4]; 50 µM Derivative + 50 µM NADH): 0.36 µmol of oxidized NADH/min/mg TcNTR
O=[N+]([O-])c1ncn(CC(O)c2ccc(F)cc2F)n1 (stereo not drawn) [Compound 8, 1-(2,4-Difluorophenyl)-2-(3-nitro-1H-1,2,4-triazol-1-yl)ethanol] | 1200 ± 0.01 µM | > 500 µM | 426 ± 66 µM | 1.0 | 11 ± 1 | 1.1 | 12 ± 4 | 1.3 | 14 ± 4 | 15 ± 5 | not mutagenic | 1.0 | 21 ± 2 | 1.0 | 26 ± 3 | 1.0 | 23 ± 6 | Cytotoxic | > 500 µM | > 500 µM | IF (induction factor) (S. typhimurium TA1535; TA1535, +S9, 500 µM): 1.4; IF (induction factor) (S. typhimurium TA1535; TA1535, +S9, 5000 µM): 1.4; revertant His+ colonies, mean ± SD (S. typhimurium TA1535; TA1535, +S9, 5000 µM): 15 ± 3; consumption rate by TcNTR, times higher than that of 9 ([4]; 25 µM): 3.4; Kobs Deriv./Kobs BZN 25 µM [4]: 2.6; consumption rate by TcNTR, times higher than that of 5 ([4]; 50 µM): 1.8; Kobs Deriv./Kobs BZN 50 µM [4]: 3.0
O=[N+]([O-])c1nccn1CC(O)c1ccc(F)cc1F (stereo not drawn) [Compound 9, 1-(2,4-Difluorophenyl)-2-(2-nitro-1H-imidazol-1-yl)ethanol] | > 400 µM | > 500 µM | > 500 µM | 1.3 | 14 ± 2 | 2.1 | 23 ± 1 | 2.2 | 24 ± 1 | Cytotoxic | mutagenic | 1.8 | 14 ± 1 | 1.8 | 14 ± 4 | 2.8 | 22 ± 1 | 16 ± 3 | > 500 µM | > 500 µM | CC50 at 72 h (in vitro [2]): > 500 µM; IF (induction factor) (S. typhimurium TA1535; TA1535, −S9, 500 µM): 2.0; revertant His+ colonies, mean ± SD (S. typhimurium TA1535; TA1535, −S9, 5000 µM): Cytotoxic; CC50 at 72 h (in vitro [3]): > 500 µM; Kobs Deriv./Kobs BZN 25 µM [4]: 0.8; consumption rate by TcNTR, times higher than that of 6 ([4]; 50 µM): 4.9; Kobs Deriv./Kobs BZN 50 µM [4]: 1.2
